According to PubChem BioAssay AID2060618 (Molecular Pharmacology Branch, DTP, NCI, 2025):

Tested on: 454973-116-R2-J3-PDC spheroids, percent test/control viability
Test: Anticancer human tumor 454973-116-R2-J3-PDC patient-derived pancreatic carcinoma cell line growth inhibition [CLK]
Settings: spheroids with HUVEC and MSC; for IC50: curve of first compound; for viability, T/C: stronger effect = lower value
Summary of the method: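 Multi-cell-type spheroids combined patient-derived tumor cells with HUVEC endothelial cells and human mesenchymal stem cells. Paired agents were dosed in half-log steps down from about clinical Cmax, or from 10 microM where Cmax was unknown.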

[1] = second compound 0.0316 µM, first compound 0.0316 µM
[2] = second compound 0.0316 µM, first compound 0.1 µM
[3] = second compound 0.0316 µM, first compound 0.316 µM
[4] = second compound 0.0316 µM, first compound 1 µM
[5] = second compound 0.0316 µM, first compound 3.16 µM
[6] = second compound 0.0316 µM, first compound 10 µM
[7] = second compound 0.1 µM, first compound 0.0316 µM
[8] = second compound 0.1 µM, first compound 0.1 µM
[9] = second compound 0.1 µM, first compound 0.316 µM
[10] = second compound 0.1 µM, first compound 1 µM
[11] = second compound 0.1 µM, first compound 3.16 µM
[12] = second compound 0.1 µM, first compound 10 µM
[13] = second compound 0.316 µM, first compound 0.0316 µM
[14] = second compound 0.316 µM, first compound 0.1 µM
[15] = second compound 0.316 µM, first compound 0.316 µM
[16] = second compound 0.316 µM, first compound 1 µM
[17] = second compound 0.316 µM, first compound 3.16 µM
[18] = second compound 0.316 µM, first compound 10 µM
[19] = second compound 1 µM, first compound 0.0316 µM
[20] = second compound 1 µM, first compound 0.1 µM
[21] = second compound 1 µM, first compound 0.316 µM
[22] = second compound 1 µM, first compound 1 µM
[23] = second compound 1 µM, first compound 3.16 µM
[24] = second compound 1 µM, first compound 10 µM
[25] = second compound 3.16 µM, first compound 0.0316 µM
[26] = second compound 3.16 µM, first compound 0.1 µM
[27] = second compound 3.16 µM, first compound 0.316 µM
[28] = second compound 3.16 µM, first compound 1 µM
[29] = second compound 3.16 µM, first compound 3.16 µM
[30] = second compound 3.16 µM, first compound 10 µM
[31] = second compound 10 µM, first compound 0.0316 µM
[32] = second compound 10 µM, first compound 0.1 µM
[33] = second compound 10 µM, first compound 0.316 µM
[34] = second compound 10 µM, first compound 1 µM
[35] = second compound 10 µM, first compound 3.16 µM
[36] = second compound 10 µM, first compound 10 µM
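Note: spheroids exposed to compounds for 7 days before readout.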

SMILES: NC(=O)C(=Cn1cnc(-c2cc(C(F)(F)F)cc(C(F)(F)F)c2)n1)c1cncnc1 + CNC(=O)c1ccc(Nc2nc(OC3CCCC3)c3c(-c4ccc5nc(C)oc5c4)c[nH]c3n2)c(OC)c1
- IC50 (second compound 0.0316 µM): 330 nM
- IC50 (second compound 0.1 µM): 411 nM
- IC50 (second compound 0.316 µM): 61.9 nM
- IC50 (second compound 1 µM): < 9.49 nM
- IC50 (second compound 3.16 µM): < 9.49 nM
- IC50 (second compound 10 µM): < 9.49 nM
- viability, T/C (second compound 0.0316 µM, first compound 0.00949 µM): 115%
- viability, T/C (second compound 0.0316 µM, first compound 0.03 µM): 92.4%
- viability, T/C (second compound 0.0316 µM, first compound 0.0949 µM): 66.3%
- viability, T/C (second compound 0.0316 µM, first compound 0.3 µM): 55%
- viability, T/C (second compound 0.0316 µM, first compound 0.949 µM): 35.7%
- viability, T/C (second compound 0.0316 µM, first compound 3 µM): 8.15%
- viability, T/C (second compound 0.1 µM, first compound 0.00949 µM): 105%
- viability, T/C (second compound 0.1 µM, first compound 0.03 µM): 96.4%
- viability, T/C (second compound 0.1 µM, first compound 0.0949 µM): 71%
- viability, T/C (second compound 0.1 µM, first compound 0.3 µM): 55.3%
- viability, T/C (second compound 0.1 µM, first compound 0.949 µM): 37.2%
- viability, T/C (second compound 0.1 µM, first compound 3 µM): 11.1%
- viability, T/C (second compound 0.316 µM, first compound 0.00949 µM): 54.1%
- viability, T/C (second compound 0.316 µM, first compound 0.03 µM): 55.3%
- viability, T/C (second compound 0.316 µM, first compound 0.0949 µM): 47.9%
- viability, T/C (second compound 0.316 µM, first compound 0.3 µM): 38.1%
- viability, T/C (second compound 0.316 µM, first compound 0.949 µM): 28.3%
- viability, T/C (second compound 0.316 µM, first compound 3 µM): 4.69%
- viability, T/C (second compound 1 µM, first compound 0.00949 µM): 35.7%
- viability, T/C (second compound 1 µM, first compound 0.03 µM): 31.3%
- viability, T/C (second compound 1 µM, first compound 0.0949 µM): 28.1%
- viability, T/C (second compound 1 µM, first compound 0.3 µM): 18.8%
- viability, T/C (second compound 1 µM, first compound 0.949 µM): 12.8%
- viability, T/C (second compound 1 µM, first compound 3 µM): 1%
- viability, T/C (second compound 3.16 µM, first compound 0.00949 µM): 31.4%
- viability, T/C (second compound 3.16 µM, first compound 0.03 µM): 30.6%
- viability, T/C (second compound 3.16 µM, first compound 0.0949 µM): 26.1%
- viability, T/C (second compound 3.16 µM, first compound 0.3 µM): 19.3%
- viability, T/C (second compound 3.16 µM, first compound 0.949 µM): 5.51%
- viability, T/C (second compound 3.16 µM, first compound 3 µM): 0.93%
- viability, T/C (second compound 10 µM, first compound 0.00949 µM): 32.6%
- viability, T/C (second compound 10 µM, first compound 0.03 µM): 25.8%
- viability, T/C (second compound 10 µM, first compound 0.0949 µM): 22.5%
- viability, T/C (second compound 10 µM, first compound 0.3 µM): 19.9%
- viability, T/C (second compound 10 µM, first compound 0.949 µM): 4.71%
- viability, T/C (second compound 10 µM, first compound 3 µM): 0.78%

SMILES: C=C(F)C(=O)N1CCN(c2nc(OCC3CCCN3C)nc3c2CCN(c2cccc4cccc(Cl)c24)C3)CC1CC#N (stereo unspecified) + CNC(=O)c1ccc(Nc2nc(OC3CCCC3)c3c(-c4ccc5nc(C)oc5c4)c[nH]c3n2)c(OC)c1
- IC50 (second compound 0.0316 µM): 5840 nM
- IC50 (second compound 0.1 µM): 4820 nM
- IC50 (second compound 0.316 µM): < 31.6 nM
- IC50 (second compound 1 µM): < 31.6 nM
- IC50 (second compound 3.16 µM): < 31.6 nM
- IC50 (second compound 10 µM): < 31.6 nM
- viability, T/C [1]: 111%
- viability, T/C [2]: 114%
- viability, T/C [3]: 109%
- viability, T/C [4]: 109%
- viability, T/C [5]: 106%
- viability, T/C [6]: 1.38%
- viability, T/C [7]: 96.9%
- viability, T/C [8]: 85%
- viability, T/C [9]: 75.7%
- viability, T/C [10]: 89.8%
- viability, T/C [11]: 78.3%
- viability, T/C [12]: 0.85%
- viability, T/C [13]: 39.6%
- viability, T/C [14]: 36.1%
- viability, T/C [15]: 38.2%
- viability, T/C [16]: 37.2%
- viability, T/C [17]: 39.5%
- viability, T/C [18]: 0.19%
- viability, T/C [19]: 35.2%
- viability, T/C [20]: 27.1%
- viability, T/C [21]: 30.4%
- viability, T/C [22]: 36.5%
- viability, T/C [23]: 31.1%
- viability, T/C [24]: 0.5%
- viability, T/C [25]: 29.8%
- viability, T/C [26]: 27.9%
- viability, T/C [27]: 28.5%
- viability, T/C [28]: 34.6%
- viability, T/C [29]: 27.2%
- viability, T/C [30]: 0.29%
- viability, T/C [31]: 28.2%
- viability, T/C [32]: 24.4%
- viability, T/C [33]: 26.5%
- viability, T/C [34]: 25.3%
- viability, T/C [35]: 19.2%
- viability, T/C [36]: 0.25%

SMILES: C=C(F)C(=O)N1CCN(c2nc(OCC3CCCN3C)nc3c2CCN(c2cccc4cccc(Cl)c24)C3)CC1CC#N (stereo unspecified) + CN1CCN(c2cc(C(=O)Nc3cc4cc(-c5cnn(C)c5)ccc4cn3)ccn2)CC1
- IC50 (second compound 0.0316 µM): 5760 nM
- IC50 (second compound 0.1 µM): 4990 nM
- IC50 (second compound 0.316 µM): < 31.6 nM
- IC50 (second compound 1 µM): < 31.6 nM
- IC50 (second compound 3.16 µM): < 31.6 nM
- IC50 (second compound 10 µM): < 31.6 nM
- viability, T/C [1]: 97.8%
- viability, T/C [2]: 109%
- viability, T/C [3]: 98.9%
- viability, T/C [4]: 101%
- viability, T/C [5]: 101%
- viability, T/C [6]: 3.09%
- viability, T/C [7]: 75.4%
- viability, T/C [8]: 82.9%
- viability, T/C [9]: 80.2%
- viability, T/C [10]: 81%
- viability, T/C [11]: 91.9%
- viability, T/C [12]: 0.93%
- viability, T/C [13]: 1.92%
- viability, T/C [14]: 2.64%
- viability, T/C [15]: 2.38%
- viability, T/C [16]: 2.24%
- viability, T/C [17]: 1.56%
- viability, T/C [18]: 0.09%
- viability, T/C [19]: 0.15%
- viability, T/C [20]: 0.21%
- viability, T/C [21]: 2.03%
- viability, T/C [22]: 0.11%
- viability, T/C [23]: 0.1%
- viability, T/C [24]: 1.24%
- viability, T/C [25]: 0.17%
- viability, T/C [26]: 2.27%
- viability, T/C [27]: 0.55%
- viability, T/C [28]: 0.15%
- viability, T/C [29]: 0.12%
- viability, T/C [30]: 1%
- viability, T/C [31]: 1.46%
- viability, T/C [32]: 0.37%
- viability, T/C [33]: 0.27%
- viability, T/C [34]: 0.68%
- viability, T/C [35]: 0.23%
- viability, T/C [36]: 0.25%
